For test [1], the system named is A549. The test can be described thus: Trypan blue dye exclusion cell viability assay. In kind it is cell-based. The following applies: Homo sapiens, 48 h. Here is the method: (§1) The effect of SS28 on viability of CEM, Reh, Nalm6, SUDHL8, Molt4, A549, HeLa 293T, mouse embryonic fibroblast (MEF) and PBMC was determined by trypan blue dye exclusion assay as described previously. Briefly, cells (0.75 × 10^5 cells/ml) were treated with increasing concentrations of SS28 (1, 5, 10 and 20, μM) for 48 and 72 h. DMSO treated cells were used as the vehicle control. Cells were harvested and subjected to trypan blue assay. Data from a minimum of three independent experiments is presented as a histogram with error bars.

Test [2] concerns CEM. Briefly: Trypan blue dye exclusion cell viability assay. In kind it is cell-based. As to conditions: Homo sapiens, CCRF-CEM, 48 h. Here is the method:
as §1

For test [3], the system named is HeLa cells. The test can be described thus: Trypan blue dye exclusion cell viability assay. In kind it is cell-based. The following applies: Homo sapiens, 48 h. Here is the method:
as §1

Test [4] concerns Molt4. Briefly: Trypan blue dye exclusion cell viability assay. In kind it is cell-based. The following applies: Homo sapiens, MOLT-4, 48 h. As for the experimental part:
as §1

The test system of test [5] is Nalm6. The test can be described thus: Trypan blue dye exclusion cell viability assay. In kind it is cell-based. The following applies: Homo sapiens, NALM-6, 48 h. As for the experimental part: as §1
Test [6] concerns Reh. The test can be described thus: Trypan blue dye exclusion cell viability assay. In kind it is cell-based. The following applies: Homo sapiens, 48 h. Here is the method:
as §1

In test [7] the test system is SUDHL8. The test can be described thus: Trypan blue dye exclusion cell viability assay. In kind it is cell-based. The following applies: Homo sapiens, SU-DHL-8, 48 h. As for the experimental part:
as §1

Test [8] deals with mouse embryonic fibroblast cells (MEF). The test can be described thus: Trypan blue dye exclusion cell viability assay. In kind it is cell-based. The following applies: 48 h. Here is the method: as §1
Test [9] has as its system peripheral blood mononuclear cells (PBMC). Briefly: Trypan blue dye exclusion cell viability assay. In kind it is cell-based. As to conditions: 48 h. As for the experimental part:
as §1

The test system of test [10] is several cancer cell lines. The test can be described thus: Cytotoxicity in cancer cell lines ex vivo (summary). In kind it is cell-based. Here is the method: as §1
Test [11] addresses purified Tubulin. The test can be described thus: Fluorescence binding study, double reciprocal plot. The following applies: double reciprocal plot of fluorescence data, 1:1 binding, 30 °C, ± SEM; read-out: dissociation constant (Kd). Here is the method: Fluorescence spectral measurements were performed using Infinite M200 PRO microplate reader (Tecan Group Ltd., Switzerland). Briefly, SS28 (10 μM) was preincubated with increasing concentration of Tubulin (10, 25, 50, 100, 500 and 1000 nM) at 30 °C for 30 min. SS28 Tubulin complex was then scanned for the emission spectra from 345 to 545 nm at 315 nm excitation range. Resulting fluorescence intensity was plotted as the function of wavelength.
The dissociation constant (Kd) was determined using double reciprocal plot of change in fluorescence of SS28 (1/Δ(F0-F)) as a function of protein concentration by the method of Benesi and Hildebrand assuming a 1:1 binding of SS28 to Tubulin[48]. The spectral measurements were recorded three times and SEM was calculated.

In test [12] the test system is A549 cells. The test can be described thus: Cell cycle phase distribution by flow cytometry. As to conditions: A549, 5 μM, 6 to 24 h. In kind it is cell-based, human. Here is the method:
(§2) Cell cycle analysis by flow cytometry was performed as previously described. Briefly, 75,000 cells/ml (A549) were seeded in 6 well plates and grown in serum free medium for 18 h. After synchronisation, the cells were treated with 5 μM of SS28 (6, 12, 18, 24 and 30 h) and cells were processed as described before. Similarly, CEM cells (75,000 cells/ml) were treated with SS28 (2 μM) and harvested (6, 12, 18, 24 and 30 h) and processed. Following fixation, cells were resuspended in PBS and stained with propidium iodide and evaluated in a flow cytometer (FACS Calibur, Becton Dickinson) using Cell Quest Pro software using excitation 488 nm laser and emission at 560/570 nm. A minimum of 10,000 cells were acquired per sample and histograms were analysed using WinMDI 2.8 software.
(Flow cytometry measures light scatter and fluorescence of single cells or particles in a stream.)

Test [13] deals with CEM cells. The test can be described thus: Cell cycle phase distribution by flow cytometry. As to conditions: 2 μM, after 12 h. In kind it is cell-based, Human. As for the experimental part:
as §2

Test [14] has as its system A549 cells. The test can be described thus: Immunofluorescence microscopy of spindle microtubule organisation. In kind it is cell-based, human. The following applies: 24 h. As for the experimental part: Immunofluorescence microscopy was performed as previously described. A549 cells were grown on coverslips coated with gelatin (0.1%). […] After 24 h of the treatment nonspecific antibody binding sites were blocked using FBS following which cells were incubated with antitubulin antibody (1:500) at RT. Coverslips were washed in PBS, incubated in biotinylated antimouse secondary antibody (1:500; RT for 1 h) followed by Streptavidin-FITC (1:200). Finally, cells were mounted with DABCO and images were captured using Zeiss Fluorescence microscope and analyzed using Axio vision software. Colchicine treated cells were used as a positive control.

Test [15] has as its system CEM cells. The test can be described thus: Mitochondrial membrane potential (JC-1 staining, flow cytometry). The following applies: CEM, 1, 5, 10, 20 μM, 48 h. In kind it is cell-based, Human. Here is the method:
Flow cytometric analysis of cells stained with JC-1 was used to measure changes in mitochondrial transmembrane potential as described. Briefly, cells were seeded at a density of 1 × 10^5 cells/ml and treated with SS28 (1, 5, 10 and 20 μM). After 48 h, cells were harvested, washed and incubated with JC-1 (5,5′,6,6 tetrachloro-1,1′,3,3′-tetraethyl benzimidazol carbocyanine iodide; Calbiochem, USA) for 15 min. 2,4-Dinitrophenol-treated cells (2,4-DNP) served as the positive control. Cells were processed and analyzed by flow cytometry using CellQuest pro software with an excitation at 488 nm laser and emission at 530 nm. JC-1 monomers emit at 530 nm and J-aggregates emit at 590 nm.

Test [16] deals with CEM cells. The test can be described thus: Annexin V-FITC/PI double-staining assay. In kind it is cell-based, Human. The following applies: 48 h; for cells in early apoptotic stage: Annexin positive; for cells in late apoptosis: Annexin/PI positive. Here is the method: When cells undergo apoptosis, the integrity of the cell membrane is disrupted and phosphatidyl serine is exposed. Annexin V conjugated with FITC (apoptosis detection kit Santacruz, USA) has a selective affinity for phosphatidyl serine, based on which early and late apoptotic cells can be detected.
CEM cells (1 × 10^5 cells/ml) were treated with SS28 (5 and 10 μM) for 48 h. Cells were then harvested, washed with cold PBS and used for annexin-PI double-staining assay. Samples were resuspended in 1x binding buffer and incubated with Annexin V-FITC ([…]) and PI (0.05 mg/ml) and analyzed by flow cytometry (FACS calibur) using CellQuest pro software at an excitation with 488 nm laser and emission at 530 nm[55]. A minimum of 10,000 cells were acquired for each sample and illustrated as dot plot using Flowing software.

Usually IC50 stands for the concentration at which inhibition is half-maximal. A lower IC50 goes with inhibition by little substance. What is called Kd is the concentration at which binding is half-saturated. On to `COc1cc(/C=C/c2ccc(C)cc2)cc(OC)c1OC` [SS28, (E)-1,2,3-trimethoxy-5-(4-methylstyryl)benzene], for which the IC50 in [1] was found to be 5.2 µM; in [2] it was 2.6 µM; in [3] it was 32.4 µM; in test [4], 5.1 µM; in [5], 21 µM; in test [6], 7.9 µM. The IC50 is 2.7 µM in [7], 5 µM in test [8], more than 35 µM in [9] and 3 to 5 µM in [10]. Further, the Kd in [11] is 0.414 ± 0.11 µM. Also, the cell cycle distribution result in [12] was “significant accumulation of cells at G2/M phase”; in [13] it was “distinct G2/M arrest”. The “cells displaying abnormal spindle organisation” value in test [14] (A549, 5 μM) is recorded as ~ 38%. The “Metaphase arrest (number of cells)” value came to 30 in [14] (A549, 5 μM, total number of cells 78) and 123 in test [14] (A549, 10 μM, total number of cells 387). Moreover, the “mitochondrial membrane potential (JC-1 fluorescence)” value in [15] was “concentration dependant increase in the green fluoresced cells”. Besides, the figures for the “cells in early apoptotic stage” value in [16] (5 μM) and in [16] (10 μM) were 28.2% and 32.9%, respectively. The “cells in late apoptosis” value in test [16] (5 μM) is on record as 39.8%; in test [16] (10 μM) it was 46.9%. The necrosis result in [16] (5 and 10 μM) is given as “did not observe any cells undergoing necrosis”.

Source of the values: article PMC5066224, “A Novel Resveratrol Based Tubulin Inhibitor Induces Mitotic Arrest and Activates Apoptosis in Cancer Cells” (Scientific Reports, 2016).
